Test results taken from patent US9801844B2, “Methods and compositions for the treatment of cancer” (priority 2012, dated 2017).
Where “and” joins values, the source holds several entries; their conditions need not be identical. Equal entries are not always repeated.

Legend:
MCF7/Her2-18 cells = assay: MTT cell proliferation assay on MCF7/Her2-18 cells; type: cell-based; settings: Homo sapiens; MCF7/Her2-18 (45-fold increase Her2); read-out: IC50 growth inhibition
Experimental: (§1) MDA-MB-453 (ER negative, Her2 overexpressing), MDA-MB-468 (triple negative) and MCF7 (ER positive, Her2 low) cells, HT29 (p53 positive human colon cancer cells) (ATCC, Manassas, Va.) were grown in Dulbecco's Modified Eagle's medium (DMEM) (Gibco BRL Life Technologies, Inc., Rockville, Md.) containing 10% (v/v) fetal bovine serum (FBS) (Gibco BRL) at 37° C., 5% C02. SUM 149 (Her2 overexpressing, ER low) (the gift of Dr. R. Parsons, Columbia University Medical Center, New York, N.Y.) were cultivated in Ham's F-12 medium with 10% FBS. MCF7 and MCF7/Her2-18 (MCF7 cells transfected with a full length Her2 cDNA coding region, 45-fold increase Her2) were the kind gift of Dr. Dennis Slamon (Los Angeles, Calif.). These cells were maintained in RPMI supplemented with 10% FBS plus glutamine (1%) and PSF (1%) (Gibco, Rockville Md.).
(§2) MTT assay: the MTT {3-(4,5-dimethyl-2-thiazol)-2,5-diphenyl-2H tetrazolilum bromide} (Dojindo; Tokyo, Japan) cell proliferation assay system (Roche Diagnostic, Mannheim, Germany) was used to determine the sensitivity of the various cell lines to agents. Cells were seeded at 1×10^4 cells/well in 96-well plates and allowed to attach for 24 h. […] The cells were treated for 96 or 120 h, after which they were incubated with MTT reagents and the absorbance read at 650 and 575 nm. For cell growth assays, the data are expressed as mean+/−standard deviation. […]

[1] = system: HT29 human colon cancer cells; assay: Proliferation assay (MTT) on HT29 cells; type: cell-based; settings: 1 μg/ml, HT29, 96 h
Experimental: The HT29 cells were maintained in McCoy's Media containing 10% (v/v) fetal bovine serum (FBS) (Gibco BRL) at 37° C., 5% C02.
MTT assay: the MTT {3-(4,5-dimethyl-2-thiazol)-2,5-diphenyl-2H tetrazolilum bromide} (Dojindo; Tokyo, Japan) cell proliferation assay system (Roche Diagnostic, Mannheim, Germany) was used to determine the sensitivity of the various cell lines to agents. Cells were seeded at 1×10^4 cells/well in 96-well plates and allowed to attach for 24 h. The medium was replaced with fresh medium containing DMSO or compound. The cells were treated for 96 or 120 h, after which they were incubated with MTT reagents and the absorbance read at 650 and 575 nm. For cell growth assays, the data are expressed as mean+/−standard deviation. Control and treated cells were compared using the student's t-test (p<0.05).
HT29 (p53 positive human colon cancer cells), as well as MDA-MB-453 Her2 overexpressing ER-negative human breast cancer cells are treated with increasing concentrations of the liposome carnosic acid complex and carnosic acid.
Cells were exposed to increasing concentrations of agents for 96 h and the number of viable cells determined by the MTT assay.

[2] = system: MDA-MB-453 human breast cancer cells; assay: Cell cycle analysis by DNA flow cytometry; type: cell-based; settings: 48 h
Experimental: For cell cycle analysis the cells were plated (3×105) onto 6 cm dishes and allowed to attach for 24 h. Then the medium was replaced with DMEM containing 10% FBS and DMSO or agents. After 48 h, the cells were analyzed by DNA flow cytometry.
To examine the effects of rosemary on the cell cycle, MDA-MB-453 human breast cancer cells were treated with rosemary extract enriched for CA (50%) at 40 or 80 μg/ml and purified CA at 10, 20 or 40 μg/ml for 48 h. The cells were then stained with propidium iodide and the stained cells were analyzed by DNA flow cytometry (Table 1).
MDA-MB-453 cells were treated with 0, 10, 20, or 40 μg/ml of carnosic acid or 40, 80 μg/ml of rosemary extract (carnosic acid: 50%), and analyzed at 48 hr by DNA flow cytometry. The values indicate the % of cells in the cell cycle phases.

[3] = system: MDA-MB-453 Her2 overexpressing human breast cancer cells; assay: MTT cell proliferation assay on MDA-MB-453 cells; type: cell-based; settings: for Proliferation (relative to control = 1) / % proliferation: MDA-MB-453, 96 h
MDA-MB-468 cells = assay: Real-time RT-PCR of specific mRNAs in MDA-MB-468 cells; type: cell-based, human; settings: for increase in expression of RNA of CDKN1A: 4 μg/ml, MDA-MB-468
Experimental: (§3) Real-time RT-PCR analysis was performed on 2 technical replicates of at least 2 biological sample replicates.
(§4) Real-time quantitative RT-PCR methods were used to determine the nature of the RNA induced by treatment with CA, using the Real Time PCR machine Stratagene MX3005P QPCR System.
(§5) Real-time RT-PCR analysis was performed to examine the mode of action of CA. In MDA-MB-468 cells, CA at 4 μg/ml induced an increase in expression of RNA of the tumor suppressor gene CDKN1A; for MDA-MB-468 cells (6 h: 1.51-logfold; 24 h: 1.61-logfold) (FIG. 3A); for SUM149 cells (6 h: 2.7-logfold). CA had little effect on the expression of the tumor suppressor gene BRCA1.

SUM149 cells = assay: Real-time RT-PCR of specific mRNAs in SUM149 cells; type: cell-based; settings: 4 μg/ml, 6 h
Experimental: as §3, §4, §5

[4] = system: MCF7 (ER positive, Her2 low) cells; assay: MTT cell proliferation assay on MCF7 cells; type: cell-based; settings: Homo sapiens, read-out: IC50 growth inhibition
Experimental: as §1, §2

Compound: CC(C)c1cc2c(c(O)c1O)[C@@]1(C(=O)O)CCCC(C)(C)[C@@H]1CC2 [carnosic acid]
- IC50 (MCF7/Her2-18 cells): 9 µg/mL and 27 µM
- % proliferation [1]: 99.3%
- % of Cells G1 ([2]; 10 ug/ml): 51.2%
- % of Cells G2 ([2]; 10 ug/ml): 11.8%
- % of Cells Sub G1 ([2]; 10 ug/ml): 1.5%
- % of Cells S ([2]; 10 ug/ul): 31.2%
- % of Cells G1 ([2]; 20 ug/ml): 71.9%
- % of Cells G2 ([2]; 20 ug/ml): 9.1%
- % of Cells Sub G1 ([2]; 20 ug/ml): 1.7%
- % of Cells S ([2]; 20 ug/ul): 15.3%
- % of Cells G1 ([2]; 40 ug/ml): 50.8%
- % of Cells G2 ([2]; 40 ug/ml): 13.9%
- % of Cells Sub G1 ([2]; 40 ug/ml): 1.6%
- % of Cells S ([2]; 40 ug/ul): 28.9%
- inhibition of cell growth ([3]; 0.5 μg/ml, 96 h, MTT): no inhibition
- Proliferation (relative to control = 1) ([3]; 0.5 ug/ml, MTT): 1.07
- % proliferation ([3]; 0.5 μg/ml, MTT): 107%
- Proliferation (relative to control = 1) ([3]; 2 ug/ml, MTT): 0.989
- % proliferation ([3]; 2 μg/ml, MTT): 98.9%
- Proliferation (relative to control = 1) ([3]; 5 ug/ml, MTT): 0.915
- % proliferation ([3]; 5 μg/ml, MTT): 91.5%
- Proliferation (relative to control = 1) ([3]; 10 ug/ml, MTT): 0.758
- Proliferation (relative to control = 1) ([3]; 20 ug/ml, MTT): 0.573
- IC50 ([3]; Homo sapiens, MDA-MB-453 cells, MTT assay, read-out: IC50, concentration that caused 50% inhibition of cell proliferation): 3 µg/mL and 7 µM
- increase in expression of RNA of CDKN1A (MDA-MB-468 cells; 6 h): 1.51 logfold
- increase in expression of RNA of CDKN1A (MDA-MB-468 cells; 24 h): 1.61 logfold
- effect on expression of the vitamin D receptor (MDA-MB-468 cells; 6 h, real-time RT-PCR): slight increase in expression
- effect on expression of BRCA1 (MDA-MB-468 cells; real-time RT-PCR): little effect
- effect on expression of CYP24A1 (MDA-MB-468 cells; real-time RT-PCR): significant increase in expression
- increase in expression of RNA of CDKN1A (SUM149 cells): 2.7 logfold
- IC50 [4]: 25 µg/mL and 75 µM
